Assay results from patent US20210386738A1, “COMBINATION OF PRMT5 INHIBITORS AND BCL-2 INHIBITORS” (GLAXOSMITHKLINE INTELLECTUAL PROPERTY DEVELOPMENT LIMITED, priority 2018, published 2021).

Columns and labels:
Format in all cases: cell-based
[1] = test system: lymphoma cell line SU-DHL-4; assay: Standard 6-day growth-death assay, SU-DHL-4; conditions: single agent or fixed 1:1 combination; for EC50 / IC50: Homo sapiens, 144 h; for EC50: average of n=2, read-out: dEC50; for IC50: average of n=2, read-out: gIC50; for Ymin-T0 / gIC100: average of n=2
Description: (§1) The majority cell lines were obtained from GSK BioCat group, American Type Culture Collection (ATCC), or the Deutsche Sammlung von Mikroorganismen and Zellbulturen (DSMZ). All cell lines were maintained in growth medium in T75 cm^2 flasks, incubated at 37° C. with 5% CO2 and split every 3 to 4 days. Growth media conditions and cell line information are detailed in Table 1. Cells were counted using the Vi-Cell Analyzer (Beckman Coulter ViCell) to obtain viable cell counts.
(§2) Optimal cell seeding density was determined for all cell lines by monitoring proliferation over a range of seeding densities in 384-well format and identifying the seeding density at which cells grew logarithmically throughout six days. 50 uL of cells per well were plated in 384-well plates at the optimal seeding density in preferred supplemented culture media. Three plates were prepared per cell line and incubated overnight at 37° C. in 5% CO2.
(§3) In these studies, lymphoma cell lines were treated with PRMT5 inhibitor, compound A and BCL-2 targeted inhibitor, ABT-199 single agent or in combination using a fixed 1:1 ratio of each inhibitor over a 20-point titration. For compound A single and fixed 1:1 ratio combination with ABT-199 cell proliferation assay, cells were treated in duplicate with a 20-point, two-fold dilution series of Compound A, ABT-199 (≥14 μM top dose) single or combo treatment, and ≤0.15% DMSO final concentration. Plates were incubated for six days at the conditions described above. Cell growth was measured using CellTiter-Glo (Promega) and luminescence signal was detected with a BioTek Synergy Neo microplate reader. A plate of untreated cells was read at the time of compound/biologic addition to determine the T0 value representing the starting number of cells. Data were fit with a four-parameter equation to generate a concentration response curve using Assay Client software.
(§4) Results were background corrected by subtraction of values from wells containing no cells, expressed as a percentage of the T0 value (value at time=0), and plotted against compound concentration. The T0 value was normalized to 100% and represents the number of cells present at the time of compound addition. The cellular response was determined for each compound using a 4- or 6-parameter curve fit of cell viability against concentration using Assay Client software. Growth IC50 (gIC50) values correspond to the concentration intersecting the mid-point of the growth window (between DMSO and T0 values). Growth IC100 (gIC100) values correspond to the concentration at which 100% growth inhibition is achieved, based on the growth window. The Ymin−T0 value, a measure of net population cell growth or death, is calculated by subtracting the T0 value (100%) from the Ymin value (%) that is determined from the fit of the concentration response curve. Death EC50 (dEC50) values correspond to the concentration at which 50% net cell death is observed.
(§5) Individual curves were quality checked for three criteria: outlier data points, cell growth (population doubling ≥1.5), and proper curve fitting. […] Individual curves were QC checked for outlier data points, cell growth (population doubling ≥1.5), and proper curve fitting. Obvious outlier data points were omitted only as needed to ensure proper curve fit.
(§6) For fixed ratio screening, combination activity was assessed by the fold change in gIC50 compared to the 2 single agent curves by dividing the compound ratio as necessary. Combinations showing >3-fold and >5-fold change from single agent are described as below: • Fold changes ≥5 are considered to represent strong synergy. • Fold changes between 3.0 and 4.9 are considered to represent weak synergy. • Fold changes <3 are considered to represent no synergy.

[2] = test system: lymphoma cell line WSU-FSCCL; assay: Standard 6-day growth-death assay, WSU-FSCCL; conditions: single agent or fixed 1:1 combination; for EC50 / IC50: 144 h; for EC50: average of n=2, read-out: dEC50; for IC50: average of n=2, read-out: gIC50; for Ymin-T0 / gIC100: average of n=2
Description: as §1, §2, §3, §4, §5, §6

[3] = test system: lymphoma cell line NU-DUL-1; assay: Standard 6-day growth-death assay, NU-DUL-1; conditions: single agent or fixed 1:1 combination; for IC50: average of n=2, read-out: gIC50; for Ymin-T0 / gIC100: average of n=2
Description: as §1, §2, §3, §4, §5, §6

[4] = test system: lymphoma cell line JV-M2*; assay: Standard 6-day growth-death assay, JV-M2*; conditions: single agent or fixed 1:1 combination; for IC50: average of n=2, read-out: gIC50; for Ymin-T0 / gIC100: average of n=2
Description: as §1, §2, §3, §4, §5, §6

Z-138 = assay: Standard 6-day growth-death assay, Z-138 as control for Compound A; conditions: single agent or fixed 1:1 combination; for EC50 / IC50: Homo sapiens, 144 h; for EC50: average of n=2, read-out: dEC50; for IC50: average of n=2, read-out: gIC50; for Ymin-T0 / gIC100: average of n=2
Description: as §1, §2, §3, §4, §5, §6

| Compound | EC50 [1] [µM] | IC50 [1] [nM] | Ymin-T0 [1] [%] | gIC100 [1] [µM] | EC50 [2] [µM] | IC50 [2] [nM] | Ymin-T0 [2] [%] | gIC100 [2] [µM] | EC50 ([3]; Homo sapiens, 144 h, average of n=2, read-out: dEC50) [µM] | IC50 ([3]; Homo sapiens, 144 h) [µM] | Ymin-T0 [3] [%] | gIC100 [3] [µM] | IC50 ([4]; Homo sapiens, JVM-2, 144 h) [nM] | Ymin-T0 [4] [%] | gIC100 [4] [nM] | EC50 (Z-138) [nM] | IC50 (Z-138) [nM] | Ymin-T0 (Z-138) [%] | gIC100 (Z-138) [nM] | EC50 ([4]; Homo sapiens, JVM-2, 144 h, average of n=2, read-out: dEC50) [µM] |
| --- | --- | --- | --- | --- | --- | --- | --- | --- | --- | --- | --- | --- | --- | --- | --- | --- | --- | --- | --- | --- |
| O=C(NC[C@H](O)CN1CCc2ccccc2C1)c1ccnc(NC2CCC2)c1 [Compound A] | > 14.7 | 743 | 1083 | 14.663 | > 14.7 | 388 | 224 | 14.663 | > 14.7 | 3.73 | −11 | 12.659 | 139 | −14 | 2211 | 794 | 38 | −93.1 | 453 | – |
| CC1(C)CCC(CN2CCN(c3ccc(C(=O)NS(=O)(=O)c4ccc(NCC5CCOCC5)c([N+](=O)[O-])c4)c(Oc4cnc5[nH]ccc5c4)c3)CC2)=C(c2ccc(Cl)cc2)C1 [ABT-199, venetoclax, reference compound] | 13 | 673 | 316 | 12.485 | 14.6 | 238 | −49 | 10.53 | – | 3.02 | −45 | 4.832 | 27 | −63 | 1607 | 3120 | 14 | −78 | 1119 | 9.08 |
